Paper PMC11990924, “Inhibition of Tyrosinase and Melanogenesis by Carboxylic Acids: Mechanistic Insights and Safety Evaluation” (Molecules, 2025)

Legend:
mushroom tyrosinase = mushroom tyrosinase (Agaricus bisporus, UniProt C7FF04); assay: Inhibition of mushroom tyrosinase activity (L-DOPA, OD475); assay type: biochemical; settings: read-out: tyrosinase inhibition rate
Experimental: L-DOPA solution (5 mM) and tyrosinase (400 U/mL) (Sigma-Aldrich, St. Louis, MO, USA) were prepared in PBS buffer (pH 7.4) (Qingdao Hope Bio-Technology Co., Ltd., Qingdao, China). A reaction mixture was prepared by combining 240 μL of carboxylic acid at various concentrations, 360 μL of L-DOPA solution, and 120 μL of tyrosinase. […] Deionized water was used as the control.

B16-F10 cells = assay: Proteomic analysis of B16-F10 cells (DIA mass spectrometry); assay type: cell-based, mouse; settings: 6 mM vs control; Table S4
Experimental: B16-F10 cells were treated with various concentrations of carboxylic acids following the same culture protocol used for melanin inhibition assays. After treatment, the cells were collected and submitted to Shanghai Zhongke Xinming Biotechnology Co., Ltd. (Shanghai, China) for proteomics analysis. The collected cells were lysed with an appropriate volume of SDT lysis buffer (4% SDS, 100 mM Tris-HCl, pH 7.6) to extract proteins. DTT was added to reduce disulfide bonds, followed by incubation at room temperature for 1 h. Subsequently, iodoacetamide was added, and the mixture was reacted in the dark at room temperature for 30 min. The proteins were then digested with trypsin overnight. The resulting peptide fragments were desalted using a C18 cartridge. After freeze-drying, the peptides were resuspended in 40 μL of 0.1% formic acid solution, and the peptide concentration was determined by measuring the absorbance at 280 nm. An appropriate amount of internal reference for targeted proteomics (iRT) standard peptides was added to each sample for data-independent acquisition (DIA) mass spectrometry analysis. Chromatographic separation was performed using a nanoflow Evosep One system. The separated samples were analyzed by DIA mass spectrometry using a timsTOF Pro mass spectrometer (Bruker Daltonics, Bremen, Germany). Detection was conducted in positive-ion mode, with MS and MS/MS scanning ranges set from 100 to 1700 m/z. MS2 data acquisition was performed in DIA mode, with four TIMS scan windows, each accumulating for 100 ms. In PASEF mode, the collision energy varied linearly with ion mobility (1/K0), ranging from 20 to 59 eV for ions with 1/K0 values between 0.85 and 1.30 Vs/cm^2. The DIA data were processed using Spectronaut 19 software with the following parameter settings: retention time prediction type set to dynamic iRT, interference correction on MS2 level enabled, cross-run normalization enabled, maximum missed cleavage sites set to 2, fixed modification set to Carbamidomethyl (C), and variable modifications set to Oxidation (M) and Acetyl (Protein N-term). All results were filtered with a Q-value cutoff of 0.01, corresponding to a false discovery rate (FDR) of less than 1%. The target protein set was annotated using Blast2GO (version BLASTP 2.8.0+). The process included four steps: sequence alignment (Blast), GO mapping, GO annotation, and additional annotation augmentation using InterProScan. Using the KOBAS 3.0 software, KEGG pathway annotation was performed on the target protein set. Fisher’s exact test was employed to compare the distribution of GO categories in the target protein set and the overall protein set, thereby conducting enrichment analysis of the GO annotations in the target protein set. The proteomics dataset generated in this study has been made publicly available through the PRIDE ProteomeXchange Consortium with the dataset identifier PXD061919.

rabbits and mice = settings: in vivo; cited from earlier work

Sequence of mushroom tyrosinase (C7FF04 2-392): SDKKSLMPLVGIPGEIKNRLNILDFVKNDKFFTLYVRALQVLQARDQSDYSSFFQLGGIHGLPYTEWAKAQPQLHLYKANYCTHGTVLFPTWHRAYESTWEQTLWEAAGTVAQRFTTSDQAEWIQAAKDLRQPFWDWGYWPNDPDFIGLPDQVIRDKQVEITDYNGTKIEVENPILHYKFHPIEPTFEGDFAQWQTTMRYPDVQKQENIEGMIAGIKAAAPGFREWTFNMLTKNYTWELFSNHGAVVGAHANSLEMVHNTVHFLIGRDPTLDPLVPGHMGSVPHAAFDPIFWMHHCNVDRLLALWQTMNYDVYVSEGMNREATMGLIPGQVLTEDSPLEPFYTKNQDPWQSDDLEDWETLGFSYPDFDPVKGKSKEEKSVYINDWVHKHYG

**Q.** What does the source list for `O=C(O)CC(O)C(=O)O` (stereo not drawn) [malic acid]?
**A.** inhibition at 6000 µM (mushroom tyrosinase): > 80%; Abhd14a protein fold change (B16-F10 cells): 0.4947; Acvr1b protein fold change (B16-F10 cells): 0.348; Adgrg1 protein fold change (B16-F10 cells): 0.3255; Aplp2 protein fold change (B16-F10 cells): 0.1925; App protein fold change (B16-F10 cells): 0.309; Arrdc3 protein fold change (B16-F10 cells): 0.2723; Atp6ap2 protein fold change (B16-F10 cells): 0.4615; Atxn2l protein fold change (B16-F10 cells): 0.3743; Bace2 protein fold change (B16-F10 cells): 0.2949; CUB domain-containing protein (Q3TD85) fold change (B16-F10 cells): 0.319; Cd151 protein fold change (B16-F10 cells): 0.3796; Cox6a1 protein fold change (B16-F10 cells): 2.331; Cpe protein fold change (B16-F10 cells): 0.425; Cryab protein fold change (B16-F10 cells): 0.4352; Ctns protein fold change (B16-F10 cells): 0.4962; Cxne protein fold change (B16-F10 cells): 0.4043; Cyp51a1 protein fold change (B16-F10 cells): 0.4596; Dct protein fold change (B16-F10 cells): 0.453; Ddr1 protein fold change (B16-F10 cells): 0.4956; Dgcr2 protein fold change (B16-F10 cells): 0.4757; Dhrsx protein fold change (B16-F10 cells): 0.4224; E2f5 protein fold change (B16-F10 cells): 2.052; Eng protein fold change (B16-F10 cells): 0.4971; Fam174b protein fold change (B16-F10 cells): 0.4334; Fau protein fold change (B16-F10 cells): 4.207; Fip1l1 protein fold change (B16-F10 cells): 0.4619; Fth1 protein fold change (B16-F10 cells): 2.2552; Ftl1 protein fold change (B16-F10 cells): 2.521; Ginm1 protein fold change (B16-F10 cells): 0.2408; Globin family profile domain-containing protein (Q8BPF4) fold change (B16-F10 cells): 0.4868; Gpnmb protein fold change (B16-F10 cells): 0.4267; H1-0 protein fold change (B16-F10 cells): 2.091; H1-1 protein fold change (B16-F10 cells): 2.387; Haghl protein fold change (B16-F10 cells): 2.0913; Hbbt1 protein fold change (B16-F10 cells): 0.3537; Hist2h2aa1 protein fold change (B16-F10 cells): 5.559; Hspb1 protein fold change (B16-F10 cells): 0.432; Ifitm2 protein fold change (B16-F10 cells): 0.2473; Ifitm3 protein fold change (B16-F10 cells): 0.405; Ifngr1 protein fold change (B16-F10 cells): 0.477; Il10rb protein fold change (B16-F10 cells): 0.279; Il17ra protein fold change (B16-F10 cells): 0.4348; Itih3 protein fold change (B16-F10 cells): 0.2609; Itm2b protein fold change (B16-F10 cells): 0.1357; Itm2c protein fold change (B16-F10 cells): 0.2222; Lama2 protein fold change (B16-F10 cells): 2.748; Laptm4b protein fold change (B16-F10 cells): 0.1099; Ldlr protein fold change (B16-F10 cells): 0.3286; Lgmn protein fold change (B16-F10 cells): 0.3573; Lmbrd1 protein fold change (B16-F10 cells): 0.4382; Map1lc3b protein fold change (B16-F10 cells): 0.4627; Mapre2 protein fold change (B16-F10 cells): 0.4775; Mfap3 protein fold change (B16-F10 cells): 0.2203; Mfge8 protein fold change (B16-F10 cells): 0.4888; Mlana protein fold change (B16-F10 cells): 0.1802; Ndfip1 protein fold change (B16-F10 cells): 0.1482; Nrp1 protein fold change (B16-F10 cells): 0.4816; Nrp2 protein fold change (B16-F10 cells): 0.3963; Nus1 protein fold change (B16-F10 cells): 0.4939; Pbx1 protein fold change (B16-F10 cells): 2.038; Pcdhgb2 protein fold change (B16-F10 cells): 0.2826; Peli1 protein fold change (B16-F10 cells): 0.4419; Plekhb2 protein fold change (B16-F10 cells): 0.4812; Pmel protein fold change (B16-F10 cells): 0.458; Ppp1r12b protein fold change (B16-F10 cells): 2.498; Psap protein fold change (B16-F10 cells): 0.4952; Ptprs protein fold change (B16-F10 cells): 0.4661; Pwwp3a protein fold change (B16-F10 cells): 2.511; Rhob protein fold change (B16-F10 cells): 0.4341; Rhoj protein fold change (B16-F10 cells): 0.4834; Rnf130 protein fold change (B16-F10 cells): 0.4325; Sdcbp protein fold change (B16-F10 cells): 0.4716; Sema4b protein fold change (B16-F10 cells): 0.4477; Sema6d protein fold change (B16-F10 cells): 0.4605; Sgce protein fold change (B16-F10 cells): 0.2346; Sh3bp2 protein fold change (B16-F10 cells): 0.3699; Slc4a2 protein fold change (B16-F10 cells): 0.4141; Slc24a5 protein fold change (B16-F10 cells): 0.4133; Slc38a2 protein fold change (B16-F10 cells): 0.2034; Slc45a2 protein fold change (B16-F10 cells): 0.4213; Sppl2b protein fold change (B16-F10 cells): 0.4857; Spring1 protein fold change (B16-F10 cells): 0.2636; Syt4 protein fold change (B16-F10 cells): 0.1657; Tax1bp1 protein fold change (B16-F10 cells): 0.4715; Tcf7l1 protein fold change (B16-F10 cells): 0.4286; Tgfbr1 protein fold change (B16-F10 cells): 0.4711; Tk1 protein fold change (B16-F10 cells): 2.015; Tmem59 protein fold change (B16-F10 cells): 0.1062; Tmem176a protein fold change (B16-F10 cells): 0.2285; Tnfrsf1a protein fold change (B16-F10 cells): 0.4638; Tpp1 protein fold change (B16-F10 cells): 0.3033; Tspan3 protein fold change (B16-F10 cells): 0.3098; Tspan6 protein fold change (B16-F10 cells): 0.466; Tspan10 protein fold change (B16-F10 cells): 0.2722; Tspan14 protein fold change (B16-F10 cells): 0.4171; Tyr protein fold change (B16-F10 cells): 0.3761; Tyrp1 protein fold change (B16-F10 cells): 0.2755; Ubl3 protein fold change (B16-F10 cells): 0.2044; Wfdc3 protein fold change (B16-F10 cells): 0.3403; il6st protein fold change (B16-F10 cells): 0.3637; oral LD50 (rabbits and mice): 1600 to 3200 mg/kg
